The values that follow come from patent US10641776B2, “Methods for measuring binding and cellular engagement of ligands with target proteins” (EUROFINS DISCOVERX CORPORATION, priority 2015, dated 2020).

Assay [1] has as its target T1, ABL1 protein kinase (Homo sapiens, UniProt P00519).
T1 construct: made in house; host or cells: cell extract
The class given is binding. Conditions: seven inhibitors; 30 cycles of 7 seconds at 42° C. / 60 seconds at 25° C. As for the experimental part: (§1) Data were fitted with the Hill Equation and EC50s were calculated.
EC50 dose response curves for the seven inhibitors shown on the graph (inhibitor name labels and corresponding curves are in the same left to right order) were measured against ED-tagged ABL1.

Assay [2] concerns the target T2, G9a catalytic domain (Homo sapiens, UniProt Q96KQ7).
T2 sequence (Q96KQ7 1-1210): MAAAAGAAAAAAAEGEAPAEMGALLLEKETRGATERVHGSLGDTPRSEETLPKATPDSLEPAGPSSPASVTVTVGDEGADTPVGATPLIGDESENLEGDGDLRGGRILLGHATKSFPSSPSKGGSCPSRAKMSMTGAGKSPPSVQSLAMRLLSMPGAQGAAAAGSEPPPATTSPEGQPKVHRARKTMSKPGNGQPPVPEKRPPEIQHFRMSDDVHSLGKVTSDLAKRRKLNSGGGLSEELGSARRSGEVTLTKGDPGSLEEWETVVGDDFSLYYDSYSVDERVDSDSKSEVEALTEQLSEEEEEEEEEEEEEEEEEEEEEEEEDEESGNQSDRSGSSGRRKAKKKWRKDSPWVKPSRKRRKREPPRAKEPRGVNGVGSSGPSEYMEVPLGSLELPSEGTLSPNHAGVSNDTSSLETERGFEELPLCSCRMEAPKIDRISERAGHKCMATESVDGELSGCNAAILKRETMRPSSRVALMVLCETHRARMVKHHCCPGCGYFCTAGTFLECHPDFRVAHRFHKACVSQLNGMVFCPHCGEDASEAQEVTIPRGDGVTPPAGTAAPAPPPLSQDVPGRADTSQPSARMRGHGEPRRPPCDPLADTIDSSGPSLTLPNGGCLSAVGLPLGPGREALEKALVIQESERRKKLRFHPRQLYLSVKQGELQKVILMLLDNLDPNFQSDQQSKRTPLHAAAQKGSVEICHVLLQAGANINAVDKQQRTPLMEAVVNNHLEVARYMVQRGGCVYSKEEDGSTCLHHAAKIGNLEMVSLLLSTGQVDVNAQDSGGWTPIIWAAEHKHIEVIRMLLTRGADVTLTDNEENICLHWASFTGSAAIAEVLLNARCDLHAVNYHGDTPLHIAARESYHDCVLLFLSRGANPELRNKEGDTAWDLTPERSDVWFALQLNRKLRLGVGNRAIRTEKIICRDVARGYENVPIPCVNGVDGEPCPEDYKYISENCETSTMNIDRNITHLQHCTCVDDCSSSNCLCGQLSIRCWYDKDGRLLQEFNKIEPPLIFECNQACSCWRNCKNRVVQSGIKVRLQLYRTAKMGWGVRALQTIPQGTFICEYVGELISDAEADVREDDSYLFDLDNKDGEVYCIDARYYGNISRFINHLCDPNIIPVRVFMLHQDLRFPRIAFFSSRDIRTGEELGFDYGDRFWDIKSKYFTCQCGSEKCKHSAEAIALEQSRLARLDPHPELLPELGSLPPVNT
The assay is described as follows: In-cell pulse thermal denaturation EFC assay, G9a methyltransferase in HEK293 cells. The assay is classed as cell-based. Conditions: 3 hour incubation at 37° C.; single 3 minute denaturation step at 48° C.
Method: The G9a catalytic domain is expressed with a C-terminal PL tag. A 3 hour incubation with inhibitor at 37° C. is followed by a single 3 minute denaturation step at 48° C.

Assay [3] deals with T3, G9a protein methyltransferase (Homo sapiens, UniProt Q96KQ7).
T3 sequence (Q96KQ7 1-1210): T2 sequence (Q96KQ7 1-1210)
The assay is described as follows: Cell-free single-step denaturation EFC binding assay, ED-tagged G9a. Conditions: single denaturation step of 3 minutes at 50° C.; signal increase from about 10^2 nM through 10^4 nM. The method, then: as §1
This proof of concept G9a study was performed using a single denaturation step of 3 minutes at 50° C.

Assay [4] deals with H3K9me2. To be noted: Vedadi et al., Nature Chemical Biology 2011; read-out: Published cell potency for reducing H3K9me2: IC50; cited from earlier work.
The target in assay [5] is BRD4(1) (Homo sapiens, UniProt O60885). Conditions: 0-100 micromolar; 1 hour at room temperature; 45° C. for 30s. As for the experimental part:
To carry out the assay, a fusion protein [BRD4(1)-ED], which also contains an NFκB DNA binding domain at the N-terminus, was constructed with BRD4(1) and a ProLabel™ enzyme donor (ED) fragment. […] The incubation was for 1 hour at room temperature. The samples were then heated to 45° C. for 30s. EA was subsequently added into the samples (along with luminescent substrate for beta-galactosidase) and complementation was measured by measuring luminescence.
To carry out the assays, two separate samples were prepared wherein one sample comprises BRD4(1)(fusion) and no inhibitor whereas another sample comprises BRD4(1)(fusion) and an inhibitor. […] Following incubation, samples were exposed to increased temperatures (25° C., 45° C., 50° C. and 55° C. respectively). The samples were then centrifuged to separate the precipitate.
To carry out the experiment, a fusion protein was constructed comprising NFκB-BRD4(1)-ED. […] The samples were then exposed to several temperatures (25° C., 45° C., 50° C. and 55° C. respectively).

The target in assay [6] is BRD4(1) bromodomain (Homo sapiens, UniProt O60885). Conditions: HEK293 cells, n=2. The source says: 2. […] 3. […] 4. Count cells. 5. […] 6. […] 7. […] 8. […] 9.
For assay [7], the system named is c-Myc expression. Conditions: Ciceri et al., Nat Chem Biol. 2014; read-out: Published cell potency for reducing c-Myc expression: IC50; cited from earlier work.
The target in assay [8] is T4, MTH1 (Homo sapiens, UniProt P36639). To be noted: read-out: Published MTH1 potency: In vitro EC50; cited from earlier work.
In assay [9] the target is MTH1 hydrolase catalytic domain (Homo sapiens, UniProt P36639). The assay is described as follows: In-cell pulse thermal denaturation EFC assay, MTH1 hydrolase in HEK293 cells. The class given is cell-based. To be noted: 3 hours with inhibitor at 37° C.; for EC50: preliminary protocol.
The target of assay [10] is T4, MTH1. Conditions: read-out: Published MTH1 potency: Cellular IC50; cited from earlier work.

T1 sequence (P00519 whole entry): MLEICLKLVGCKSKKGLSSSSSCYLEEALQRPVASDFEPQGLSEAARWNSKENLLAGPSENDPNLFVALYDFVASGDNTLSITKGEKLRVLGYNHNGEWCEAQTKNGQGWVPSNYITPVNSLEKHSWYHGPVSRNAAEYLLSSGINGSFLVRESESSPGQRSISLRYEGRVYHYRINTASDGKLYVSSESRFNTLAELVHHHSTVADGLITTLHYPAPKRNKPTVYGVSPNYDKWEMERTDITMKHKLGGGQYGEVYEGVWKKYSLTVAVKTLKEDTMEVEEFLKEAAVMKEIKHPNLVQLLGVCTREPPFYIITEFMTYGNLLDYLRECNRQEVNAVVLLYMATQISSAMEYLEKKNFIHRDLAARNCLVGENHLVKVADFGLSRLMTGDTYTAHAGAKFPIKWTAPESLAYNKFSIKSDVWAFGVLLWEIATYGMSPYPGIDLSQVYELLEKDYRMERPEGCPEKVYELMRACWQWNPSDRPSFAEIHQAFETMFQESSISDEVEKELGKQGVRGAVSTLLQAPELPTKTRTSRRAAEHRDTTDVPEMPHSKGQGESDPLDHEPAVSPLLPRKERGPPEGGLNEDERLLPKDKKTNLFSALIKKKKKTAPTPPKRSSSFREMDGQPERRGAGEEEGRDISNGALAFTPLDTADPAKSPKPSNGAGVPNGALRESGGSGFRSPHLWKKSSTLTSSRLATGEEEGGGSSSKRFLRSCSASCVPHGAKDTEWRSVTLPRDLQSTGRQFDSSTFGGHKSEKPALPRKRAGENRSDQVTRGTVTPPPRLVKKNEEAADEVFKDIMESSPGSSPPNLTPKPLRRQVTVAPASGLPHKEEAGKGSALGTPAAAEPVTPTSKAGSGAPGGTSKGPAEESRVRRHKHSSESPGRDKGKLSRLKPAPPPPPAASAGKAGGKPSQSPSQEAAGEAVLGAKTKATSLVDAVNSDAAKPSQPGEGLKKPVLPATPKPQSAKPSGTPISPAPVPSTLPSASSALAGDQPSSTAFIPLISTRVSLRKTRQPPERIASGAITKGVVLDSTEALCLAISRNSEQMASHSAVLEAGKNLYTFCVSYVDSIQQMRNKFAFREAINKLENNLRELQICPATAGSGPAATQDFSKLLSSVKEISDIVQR

Turning to `CC(C)[C@H](CO)Nc1nc(Nc2ccc(C(=O)O)c(Cl)c2)c2ncn(C(C)C)c2n1` [purvalanol B], the “Affinity rank order for ABL1 from dose response curves” value in assay [1] is on record as “lowest affinity”.
What is called IC50 is the concentration that gives 50% inhibition. Consider `COc1cc2c(NC3CCN(C(C)C)CC3)nc(C3CCCCC3)nc2cc1OCCCN1CCCC1` [UNC0538, 2-Cyclohexyl-6-methoxy-N-[1-(1-methylethyl)-4-piperidinyl]-7-[3-(1-pyrrolidinyl)propoxy]-4-quinazolinamine], for which the “Assay Window” value in [2] worked out at 5.0. Besides, the “Protection against denaturation of G9a, dose response” value in assay [3] is “increases in a dose-dependent manner”. The IC50 in [4] is approximately 81 nM.
For `Cc1sc2c(c1C)C(c1ccc(Cl)cc1)=N[C@@H](CC(=O)OC(C)(C)C)c1nnc(C)n1-2` [JQ1, (6S)-4-(4-Chlorophenyl)-2,3,9-trimethyl-6H-thieno[3,2-f][1,2,4]triazolo[4,3-a][1,4]diazepine-6-acetic acid, 1,1-dimethylethyl ester], the “Rescue of BRD4(1) fusion protein from heat denaturation, dose response” value in assay [5] was “rescue the fusion protein from denaturation in a dose-dependent manner”. Moreover, in assay [6], the “Assay Window” value is 3.5 +/− 0.14. Besides, the IC50 in assay [7] is approximately 100 nM.
What is called EC50 is the concentration that produces a half-maximal response. Consider `COc1ccc2nc3c(c(C)nn3C)c(NCCOCCO)c2c1` [SCH 51344], for which the EC50 in [8] was 50 nM; in [9] (denaturation 45° C./1.5 min.), 370 nM; in assay [9] (denaturation 48° C./3.0 min.) it was 4600 nM. Also, the “Assay Window” value in assay [9] (denaturation 45° C./1.5 min.) is 1.9; in assay [9] (denaturation 48° C./3.0 min.), 9.7. The IC50 in assay [10] is less than 20000 nM.
